From ChEMBL document CHEMBL5723582, “Data for DCP probe T-10430” (2024)

How the values were obtained:
Conditions in all cases: Compound concentration 1.0 uM
[1] = biological target: Beta-3 adrenergic receptor (Homo sapiens) (UniProt P13945); assay: RLU of ADRB3 at 1.0 µM in the […] PRESTO-Tango GPCRome screen
[2] = biological target: C-C chemokine receptor type 2 (Homo sapiens) (UniProt P41597); assay: RLU of CCR2 at 1.0 µM in the […] PRESTO-Tango GPCRome screen
[3] = biological target: C-C chemokine receptor type 5 (Homo sapiens) (UniProt P51681); assay: RLU of CCR5 at 1.0 µM in the […] PRESTO-Tango GPCRome screen
[4] = biological target: C-C chemokine receptor type 8 (Homo sapiens) (UniProt P51685); assay: RLU of CCR8 at 1.0 µM in the […] PRESTO-Tango GPCRome screen
[5] = biological target: C-X-C chemokine receptor type 5 (Homo sapiens) (UniProt P32302); assay: RLU of CXCR5 at 1.0 µM in the […] PRESTO-Tango GPCRome screen
[6] = biological target: Adhesion G protein-coupled receptor L4 (Homo sapiens) (UniProt Q9HBW9); assay: RLU of ELTD1 at 1.0 µM in the […] PRESTO-Tango GPCRome screen
[7] = biological target: Chemerin-like receptor 2 (Homo sapiens) (UniProt P46091); assay: RLU of GPR1 at 1.0 µM in the […] PRESTO-Tango GPCRome screen
[8] = biological target: Adhesion G-protein coupled receptor F1 (Homo sapiens) (UniProt Q5T601); assay: RLU of GPR110 at 1.0 µM in the […] PRESTO-Tango GPCRome screen
[9] = biological target: Adhesion G-protein coupled receptor D1 (Homo sapiens) (UniProt Q6QNK2); assay: RLU of GPR133 at 1.0 µM in the […] PRESTO-Tango GPCRome screen
[10] = biological target: G-protein coupled receptor 143 (Homo sapiens) (UniProt P51810); assay: RLU of GPR143 at 1.0 µM in the […] PRESTO-Tango GPCRome screen
[11] = biological target: G-protein coupled receptor 146 (Homo sapiens) (UniProt Q96CH1); assay: RLU of GPR146 at 1.0 µM in the […] PRESTO-Tango GPCRome screen
[12] = biological target: G-protein coupled receptor 183 (Homo sapiens) (UniProt P32249); assay: RLU of GPR183 at 1.0 µM in the […] PRESTO-Tango GPCRome screen
Sequence of G-protein coupled receptor 183 (Homo sapiens) (P32249 whole entry): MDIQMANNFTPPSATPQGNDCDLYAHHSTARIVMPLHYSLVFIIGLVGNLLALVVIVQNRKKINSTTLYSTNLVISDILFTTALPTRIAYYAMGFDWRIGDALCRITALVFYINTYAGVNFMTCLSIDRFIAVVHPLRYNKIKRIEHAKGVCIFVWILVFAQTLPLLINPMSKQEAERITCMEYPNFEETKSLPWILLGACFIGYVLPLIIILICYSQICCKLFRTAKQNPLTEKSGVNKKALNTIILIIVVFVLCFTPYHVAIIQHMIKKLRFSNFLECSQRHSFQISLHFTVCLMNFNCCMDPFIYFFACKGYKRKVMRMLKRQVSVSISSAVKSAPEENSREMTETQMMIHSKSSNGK

[13] = biological target: 12-(S)-hydroxy-5,8,10,14-eicosatetraenoic acid receptor (Homo sapiens) (UniProt O00270); assay: RLU of GPR31 at 1.0 µM in the […] PRESTO-Tango GPCRome screen
Sequence of 12-(S)-hydroxy-5,8,10,14-eicosatetraenoic acid receptor (Homo sapiens) (O00270 whole entry): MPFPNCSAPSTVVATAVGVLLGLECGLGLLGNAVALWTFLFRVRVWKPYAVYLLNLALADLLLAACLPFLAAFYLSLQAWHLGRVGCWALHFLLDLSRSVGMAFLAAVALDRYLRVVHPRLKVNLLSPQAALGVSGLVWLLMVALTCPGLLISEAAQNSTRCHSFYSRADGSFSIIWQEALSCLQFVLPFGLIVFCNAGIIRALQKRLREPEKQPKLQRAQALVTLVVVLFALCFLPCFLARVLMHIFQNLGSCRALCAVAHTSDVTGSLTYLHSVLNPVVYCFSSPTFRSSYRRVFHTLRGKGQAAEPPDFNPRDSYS

[14] = biological target: Probable G-protein coupled receptor 32 (Homo sapiens) (UniProt O75388); assay: RLU of GPR32 at 1.0 µM in the […] PRESTO-Tango GPCRome screen
[15] = biological target: Adhesion G-protein coupled receptor G2 (Homo sapiens) (UniProt Q8IZP9); assay: RLU of GPR64 at 1.0 µM in the […] PRESTO-Tango GPCRome screen
[16] = biological target: Probable G-protein coupled receptor 82 (Homo sapiens) (UniProt Q96P67); assay: RLU of GPR82 at 1.0 µM in the […] PRESTO-Tango GPCRome screen
Sequence of Probable G-protein coupled receptor 82 (Homo sapiens) (Q96P67 whole entry): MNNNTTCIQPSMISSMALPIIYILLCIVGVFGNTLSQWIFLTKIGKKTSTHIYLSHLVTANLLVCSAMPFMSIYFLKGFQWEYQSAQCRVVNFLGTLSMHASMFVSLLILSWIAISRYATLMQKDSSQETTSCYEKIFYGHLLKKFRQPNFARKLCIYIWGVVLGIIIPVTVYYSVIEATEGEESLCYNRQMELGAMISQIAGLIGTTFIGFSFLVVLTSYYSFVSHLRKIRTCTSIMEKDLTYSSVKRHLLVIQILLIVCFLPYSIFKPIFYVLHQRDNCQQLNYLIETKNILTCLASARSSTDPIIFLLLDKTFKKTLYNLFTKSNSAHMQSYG

[17] = biological target: Adhesion G protein-coupled receptor G3 (Homo sapiens) (UniProt Q86Y34); assay: RLU of GPR97 at 1.0 µM in the […] PRESTO-Tango GPCRome screen
[18] = biological target: Metabotropic glutamate receptor 2 (Homo sapiens) (UniProt Q14416); assay: RLU of GRM2 at 1.0 µM in the Aequorin PRESTO-Tango GPCRome screen
Sequence of Metabotropic glutamate receptor 2 (Homo sapiens) (Q14416 19-872 limits assumed): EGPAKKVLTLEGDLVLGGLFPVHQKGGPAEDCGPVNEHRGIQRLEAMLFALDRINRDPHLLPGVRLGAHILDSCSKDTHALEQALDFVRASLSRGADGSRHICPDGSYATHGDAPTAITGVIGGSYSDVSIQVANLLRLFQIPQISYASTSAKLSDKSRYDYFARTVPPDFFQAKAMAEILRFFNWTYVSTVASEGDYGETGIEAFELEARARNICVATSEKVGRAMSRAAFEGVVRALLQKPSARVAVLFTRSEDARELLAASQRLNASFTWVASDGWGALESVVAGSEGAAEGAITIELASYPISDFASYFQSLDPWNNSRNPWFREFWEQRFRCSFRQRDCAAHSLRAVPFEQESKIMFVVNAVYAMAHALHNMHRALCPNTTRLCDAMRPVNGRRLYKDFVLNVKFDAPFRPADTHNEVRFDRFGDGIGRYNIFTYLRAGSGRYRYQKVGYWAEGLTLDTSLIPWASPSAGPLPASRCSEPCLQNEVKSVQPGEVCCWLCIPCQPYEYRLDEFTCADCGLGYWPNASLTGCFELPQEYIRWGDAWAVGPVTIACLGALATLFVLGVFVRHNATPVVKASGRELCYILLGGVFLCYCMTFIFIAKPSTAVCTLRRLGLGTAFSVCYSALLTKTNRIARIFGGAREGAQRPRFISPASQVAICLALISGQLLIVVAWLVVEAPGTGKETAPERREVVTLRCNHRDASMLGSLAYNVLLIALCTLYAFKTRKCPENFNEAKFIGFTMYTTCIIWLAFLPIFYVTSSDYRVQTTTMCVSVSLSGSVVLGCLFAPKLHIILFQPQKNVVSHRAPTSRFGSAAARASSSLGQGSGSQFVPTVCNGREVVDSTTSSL

[19] = biological target: Metabotropic glutamate receptor 4 (Homo sapiens) (UniProt Q14833); assay: RLU of GRM4 at 1.0 µM in the Aequorin PRESTO-Tango GPCRome screen
[20] = biological target: Metabotropic glutamate receptor 5 (Homo sapiens) (UniProt P41594); assay: RLU of GRM5 at 1.0 µM in the Aequorin PRESTO-Tango GPCRome screen
[21] = biological target: Metabotropic glutamate receptor 6 (Homo sapiens) (UniProt O15303); assay: RLU of GRM6 at 1.0 µM in the Aequorin PRESTO-Tango GPCRome screen
Sequence of Metabotropic glutamate receptor 6 (Homo sapiens) (O15303 whole entry): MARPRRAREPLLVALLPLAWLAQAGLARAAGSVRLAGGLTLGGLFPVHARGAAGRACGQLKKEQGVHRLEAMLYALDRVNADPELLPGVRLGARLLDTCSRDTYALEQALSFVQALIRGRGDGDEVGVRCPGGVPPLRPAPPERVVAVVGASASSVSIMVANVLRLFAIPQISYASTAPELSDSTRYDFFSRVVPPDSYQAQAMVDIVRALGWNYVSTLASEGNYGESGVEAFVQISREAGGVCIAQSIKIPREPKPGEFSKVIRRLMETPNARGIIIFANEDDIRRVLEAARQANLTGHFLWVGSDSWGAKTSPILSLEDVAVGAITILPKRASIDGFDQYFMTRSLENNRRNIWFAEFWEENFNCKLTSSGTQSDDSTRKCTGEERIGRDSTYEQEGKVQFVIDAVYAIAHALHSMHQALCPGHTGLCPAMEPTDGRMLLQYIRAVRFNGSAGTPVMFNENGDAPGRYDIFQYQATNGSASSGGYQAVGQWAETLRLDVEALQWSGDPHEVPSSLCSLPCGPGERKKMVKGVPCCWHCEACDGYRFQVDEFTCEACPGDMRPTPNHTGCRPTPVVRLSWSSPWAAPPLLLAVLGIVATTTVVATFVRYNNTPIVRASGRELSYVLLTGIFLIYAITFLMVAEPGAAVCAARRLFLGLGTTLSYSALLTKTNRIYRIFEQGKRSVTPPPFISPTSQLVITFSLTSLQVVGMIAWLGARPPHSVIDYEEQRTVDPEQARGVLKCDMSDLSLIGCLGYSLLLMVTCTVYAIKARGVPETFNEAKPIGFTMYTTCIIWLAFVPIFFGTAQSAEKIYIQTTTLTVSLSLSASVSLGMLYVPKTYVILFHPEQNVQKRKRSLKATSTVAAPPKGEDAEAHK

[22] = biological target: Metabotropic glutamate receptor 7 (Homo sapiens) (UniProt Q14831); assay: RLU of GRM7 at 1.0 µM in the Aequorin PRESTO-Tango GPCRome screen
[23] = biological target: Lysophosphatidic acid receptor 2 (Homo sapiens) (UniProt Q9HBW0); assay: RLU of LPAR2 at 1.0 µM in the […] PRESTO-Tango GPCRome screen
[24] = biological target: Lysophosphatidic acid receptor 6 (Homo sapiens) (UniProt P43657); assay: RLU of LPAR6 at 1.0 µM in the […] PRESTO-Tango GPCRome screen
Sequence of Lysophosphatidic acid receptor 6 (Homo sapiens) (P43657 whole entry): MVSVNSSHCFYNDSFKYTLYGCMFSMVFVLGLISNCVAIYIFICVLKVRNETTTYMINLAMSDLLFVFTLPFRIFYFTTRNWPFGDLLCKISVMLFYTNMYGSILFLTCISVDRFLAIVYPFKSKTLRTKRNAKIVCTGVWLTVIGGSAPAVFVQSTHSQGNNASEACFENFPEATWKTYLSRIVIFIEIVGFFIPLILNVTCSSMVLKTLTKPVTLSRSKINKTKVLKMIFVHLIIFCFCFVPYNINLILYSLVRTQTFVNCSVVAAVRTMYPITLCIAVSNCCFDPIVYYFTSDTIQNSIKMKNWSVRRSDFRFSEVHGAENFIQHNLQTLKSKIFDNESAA

[25] = biological target: Mas-related G-protein coupled receptor MRG (Homo sapiens) (UniProt P35410); assay: RLU of MAS1L at 1.0 µM in the […] PRESTO-Tango GPCRome screen
[26] = biological target: Melanocortin receptor 4 (Homo sapiens) (UniProt P32245); assay: RLU of MC4R at 1.0 µM in the […] PRESTO-Tango GPCRome screen
[27] = biological target: Mas-related G-protein coupled receptor member D (Homo sapiens) (UniProt Q8TDS7); assay: RLU of MRGPRD at 1.0 µM in the […] PRESTO-Tango GPCRome screen
[28] = biological target: Mas-related G-protein coupled receptor member E (Homo sapiens) (UniProt Q86SM8); assay: RLU of MRGPRE at 1.0 µM in the […] PRESTO-Tango GPCRome screen
Sequence of Mas-related G-protein coupled receptor member E (Homo sapiens) (Q86SM8 whole entry): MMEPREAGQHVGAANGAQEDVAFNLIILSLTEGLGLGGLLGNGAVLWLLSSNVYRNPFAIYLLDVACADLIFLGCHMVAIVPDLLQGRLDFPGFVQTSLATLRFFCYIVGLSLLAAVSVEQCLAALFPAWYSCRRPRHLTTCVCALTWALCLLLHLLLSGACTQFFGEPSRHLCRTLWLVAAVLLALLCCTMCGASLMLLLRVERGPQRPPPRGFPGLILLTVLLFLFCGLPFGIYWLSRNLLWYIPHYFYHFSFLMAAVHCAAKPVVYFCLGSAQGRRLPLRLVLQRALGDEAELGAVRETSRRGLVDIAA

[29] = biological target: Melatonin receptor type 1B (Homo sapiens) (UniProt P49286); assay: RLU of MTNR1B at 1.0 µM in the […] PRESTO-Tango GPCRome screen
Sequence of Melatonin receptor type 1B (Homo sapiens) (P49286 whole entry): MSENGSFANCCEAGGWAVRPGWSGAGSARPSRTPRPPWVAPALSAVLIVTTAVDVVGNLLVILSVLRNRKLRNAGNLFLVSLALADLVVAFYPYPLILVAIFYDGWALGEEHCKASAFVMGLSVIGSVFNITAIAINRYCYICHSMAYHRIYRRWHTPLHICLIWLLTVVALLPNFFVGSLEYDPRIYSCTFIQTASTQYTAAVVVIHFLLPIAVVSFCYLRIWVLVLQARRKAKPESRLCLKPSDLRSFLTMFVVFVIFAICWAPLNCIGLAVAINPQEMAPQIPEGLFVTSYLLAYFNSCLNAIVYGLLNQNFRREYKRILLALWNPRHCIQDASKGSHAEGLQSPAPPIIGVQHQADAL

[30] = biological target: Neuromedin-U receptor 1 (Homo sapiens) (UniProt Q9HB89); assay: RLU of NMUR1 at 1.0 µM in the […] PRESTO-Tango GPCRome screen
Sequence of Neuromedin-U receptor 1 (Homo sapiens) (Q9HB89 whole entry): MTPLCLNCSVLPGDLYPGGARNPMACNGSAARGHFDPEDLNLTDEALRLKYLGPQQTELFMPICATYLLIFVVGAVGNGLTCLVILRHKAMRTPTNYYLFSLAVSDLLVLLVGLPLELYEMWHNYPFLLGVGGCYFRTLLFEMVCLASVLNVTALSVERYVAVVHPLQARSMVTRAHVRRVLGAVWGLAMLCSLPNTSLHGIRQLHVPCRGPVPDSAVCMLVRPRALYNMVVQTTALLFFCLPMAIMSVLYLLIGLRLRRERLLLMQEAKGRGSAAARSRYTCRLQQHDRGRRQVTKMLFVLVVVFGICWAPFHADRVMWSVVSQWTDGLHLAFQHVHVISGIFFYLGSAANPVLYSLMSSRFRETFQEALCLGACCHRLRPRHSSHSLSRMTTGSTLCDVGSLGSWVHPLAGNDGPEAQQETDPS

[31] = biological target: Neuropeptide Y receptor type 5 (Homo sapiens) (UniProt Q15761); assay: RLU of NPY5R at 1.0 µM in the […] PRESTO-Tango GPCRome screen
[32] = biological target: Neurotensin receptor type 2 (Homo sapiens) (UniProt O95665); assay: RLU of NTSR2 at 1.0 µM in the […] PRESTO-Tango GPCRome screen
[33] = biological target: Mu-type opioid receptor (Homo sapiens) (UniProt P35372); assay: RLU of OPRM1 at 1.0 µM in the […] PRESTO-Tango GPCRome screen
Sequence of Mu-type opioid receptor (Homo sapiens) (P35372 whole entry): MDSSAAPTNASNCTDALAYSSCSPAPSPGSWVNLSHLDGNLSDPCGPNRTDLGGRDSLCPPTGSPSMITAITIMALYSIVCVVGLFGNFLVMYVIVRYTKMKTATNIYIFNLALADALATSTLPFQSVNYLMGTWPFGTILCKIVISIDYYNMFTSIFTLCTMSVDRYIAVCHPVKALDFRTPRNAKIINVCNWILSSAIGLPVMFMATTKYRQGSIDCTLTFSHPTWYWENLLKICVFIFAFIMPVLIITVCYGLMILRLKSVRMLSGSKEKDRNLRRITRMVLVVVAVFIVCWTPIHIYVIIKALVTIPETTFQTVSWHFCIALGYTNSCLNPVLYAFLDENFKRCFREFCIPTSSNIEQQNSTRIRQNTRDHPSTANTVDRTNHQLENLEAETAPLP

[34] = biological target: P2Y purinoceptor 11 (Homo sapiens) (UniProt Q96G91); assay: RLU of P2RY11 at 1.0 µM in the […] PRESTO-Tango GPCRome screen
[35] = biological target: Trace amine-associated receptor 1 (Homo sapiens) (UniProt Q96RJ0); assay: RLU of TA1 at 1.0 µM in the […] PRESTO-Tango GPCRome screen

Sequence of C-C chemokine receptor type 2 (Homo sapiens) (P41597 whole entry, looked up): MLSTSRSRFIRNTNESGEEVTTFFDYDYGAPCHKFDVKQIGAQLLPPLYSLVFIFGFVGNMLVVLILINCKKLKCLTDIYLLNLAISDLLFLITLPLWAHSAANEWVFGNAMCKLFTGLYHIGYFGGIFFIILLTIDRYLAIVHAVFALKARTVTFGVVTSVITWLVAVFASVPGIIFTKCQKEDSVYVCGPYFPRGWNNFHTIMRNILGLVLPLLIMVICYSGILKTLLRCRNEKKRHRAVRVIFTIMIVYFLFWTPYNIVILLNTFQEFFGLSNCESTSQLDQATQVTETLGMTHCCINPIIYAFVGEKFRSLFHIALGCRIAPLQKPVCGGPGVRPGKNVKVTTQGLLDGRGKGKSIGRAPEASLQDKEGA

CCCCC(=O)N1CC2(C1)CN(c1ccccc1-c1nnn[nH]1)C2
RLU [1]: 12400 | RLU [2]: 2850 | RLU [3]: 2710 | RLU [4]: -3270 | RLU [5]: -793 | RLU [6]: 1170 | RLU [7]: -60.1 | RLU [8]: 9360 | RLU [9]: -2660 | RLU [10]: -2070 | RLU [11]: -1510 | RLU [12]: -6100 | RLU [13]: 1300 | RLU [14]: 5660 | RLU [15]: 8730 | RLU [16]: -8050 | RLU [17]: 2050 | RLU [18]: -1460 | RLU [19]: -82.8 | RLU [20]: -10100 | RLU [21]: -158 | RLU [22]: 6950 | RLU [23]: -80 | RLU [24]: -7370 | RLU [25]: 2610 | RLU [26]: -2110 | RLU [27]: -630 | RLU [28]: -3210 | RLU [29]: 4170 | RLU [30]: 1950 | RLU [31]: -14500 | RLU [32]: 634 | RLU [33]: 3970 | RLU [34]: -216 | RLU [35]: 127
